# Source: US7482456B2, “8-(3-Biaryl)phenylquinoline phosphodiesterase-4 inhibitors” (Merck Frosst Canada, priority 2003, dated 2009)
# Target: T1, human recombinant phosphodiesterase IVa (met-248) (Homo sapiens, UniProt P27815)
# T1 construct: human recombinant phosphodiesterase IVa (met-248); made in house; host or cells: baculovirus/Sf-9
# Test: SPA based PDE activity assay
# Assay type: biochemical
# Details: 100 nM cAMP; purified GST fusion protein of human recombinant PDE IVa (met-248), baculovirus/Sf-9
# Procedure: Compounds which inhibit the hydrolysis of cAMP to AMP by the type-IV cAMP-specific phosphodiesterases were screened in a 96-well plate format as follows:
# In a 96 well-plate at 30° C. was added the test compound (dissolved in 2 μL DMSO), […] of substrate buffer containing [2,8-^3H] adenosine 3′,5′-cyclic phosphate (cAMP, 100 nM to 50 μM), 10 mM MgCl2, 1 mM EDTA, 50 mM Tris, pH 7.5. The reaction was initiated by the addition of […] of human recombinant PDE4 (the amount was controlled so that ˜10% product was formed in 10 min.). The reaction was stopped after 10 min. by the addition of 1 mg of PDE-SPA beads (Amersham Pharmacia Biotech, Inc., Piscataway, N.J.). The product AMP generated was quantified on a Wallac Microbeta® 96-well plate counter (EG&G Wallac Co., Gaithersburg, Md.). The signal in the absence of enzyme was defined as the background. 100% activity was defined as the signal detected in the presence of enzyme and DMSO with the background subtracted. Percentage of inhibition was calculated accordingly. IC50 value was approximated with a non-linear regression fit using the standard 4-parameter/multiple binding sites equation from a ten point titration.
# T1 sequence (P27815 248-886 limits assumed): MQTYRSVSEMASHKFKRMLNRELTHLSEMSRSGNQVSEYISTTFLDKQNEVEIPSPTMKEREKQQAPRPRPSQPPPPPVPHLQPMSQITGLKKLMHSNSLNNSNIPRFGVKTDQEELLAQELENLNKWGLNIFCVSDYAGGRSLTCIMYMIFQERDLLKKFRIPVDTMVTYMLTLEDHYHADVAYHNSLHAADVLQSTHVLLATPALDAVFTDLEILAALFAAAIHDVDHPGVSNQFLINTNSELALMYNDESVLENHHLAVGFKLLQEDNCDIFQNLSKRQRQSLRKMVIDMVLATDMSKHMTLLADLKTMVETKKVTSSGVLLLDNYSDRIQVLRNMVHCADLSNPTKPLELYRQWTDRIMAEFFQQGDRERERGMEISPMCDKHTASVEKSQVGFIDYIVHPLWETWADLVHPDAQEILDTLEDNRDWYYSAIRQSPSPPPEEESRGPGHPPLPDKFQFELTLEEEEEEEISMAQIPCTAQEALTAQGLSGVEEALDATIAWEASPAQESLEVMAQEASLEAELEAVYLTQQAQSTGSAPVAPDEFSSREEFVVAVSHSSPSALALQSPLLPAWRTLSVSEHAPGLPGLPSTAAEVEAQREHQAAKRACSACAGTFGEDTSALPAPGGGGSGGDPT
row,IC50,Compound
1,1.7 nM,"CC(C)(O)c1ccc(-c2nc(-c3ccc(S(C)(=O)=O)cc3)c(-c3cccc(-c4cc(C(C)(C)S(C)(=O)=O)cc5cccnc45)c3)s2)cc1 [Example 157, 2-(4-{5-(3-{6-[1-methyl-1-(methylsulfonyl)ethyl]quinolin-8-yl}phenyl)-4-[4-(methylsulfonyl)phenyl]-1,3-thiazol-2-yl}phenyl)propan-2-ol]"
2,2.2 nM,"Cn1nnc(-c2cc(-c3cccc(-c4cc(C(C)(C)S(C)(=O)=O)cc5cccnc45)c3)c[n+]([O-])c2)n1 [Example 115, 6-[1-methyl-1-(methylsulfonyl)ethyl]-8-{3-[5-(2-methyl-2H-tetraazol-5-yl)-1-oxidopyridin-3-yl]phenyl}quinoline]"
3,0.4 nM,"CC(C)(O)c1nc(-c2cccc(-c3cc(C(C)(C)S(C)(=O)=O)cc4cccnc34)c2)c(-c2ccc(S(C)(=O)=O)cc2)s1 [Example 78, 2-{4-(3-{6-[1-methyl-1-(methylsulfonyl)ethyl]quinolin-8-yl}phenyl)-5-[4-(methylsulfonyl)phenyl]-1,3-thiazol-2-yl}propan-2-ol]"
4,3.1 nM,"CC(O)(c1ccc(Cl)cc1)c1nc(-c2cccc(-c3cc(C(C)(C)S(C)(=O)=O)cc4cccnc34)c2)c(-c2ccc(S(C)(=O)=O)cc2)s1 (centres unmarked) [Example 82, 1-(4-chlorophenyl)-1-{4-(3-{6-[1-methyl-1-(methylsulfonyl)ethyl]quinolin-8-yl}phenyl)-5-[4-(methylsulfonyl)phenyl]-1,3-thiazol-2-yl}ethanol]"
5,0.6 nM,"CC(C)(O)c1cccc(-c2nc(-c3ccc(S(C)(=O)=O)cc3)c(-c3cccc(-c4cc(C(C)(C)S(C)(=O)=O)cc5cccnc45)c3)s2)c1 [Example 69, 2-(3-{5-(3-{6-[1-methyl-1-(methylsulfonyl)ethyl]quinolin-8-yl}phenyl)-4-[4-(methylsulfonyl)phenyl]-1,3-thiazol-2-yl}phenyl)propan-2-ol]"
6,1.6 nM,"CC(C)(O)c1cccc(-c2nc(-c3ccc(F)c(Cl)c3)c(-c3cccc(-c4cc(C(C)(C)S(C)(=O)=O)cc5cccnc45)c3)s2)c1 [Example 88, 2-{3-[4-(3-chloro-4-fluorophenyl)-5-(3-{6-[1-methyl-1-(methylsulfonyl)ethyl]quinolin-8-yl}phenyl)-1,3-thiazol-2-yl]phenyl}propan-2-ol]"
7,1 nM,CC(C)(c1cc(-c2cccc(-c3sc(-c4cccc(S(C)(=O)=O)c4)nc3-c3ccc(S(C)(=O)=O)cc3)c2)c2ncccc2c1)S(C)(=O)=O [Example 41]
8,4.1 nM,"Cc1noc(-c2cc(-c3cccc(-c4cc(C(C)(C)S(C)(=O)=O)cc5cccnc45)c3)c[n+]([O-])c2)n1 [Example 100, 6-[1-methyl-1-(methylsulfonyl)ethyl]-8-{3-[5-(3-methyl-1,2,4-oxadiazol-5-yl)-1-oxidopyridin-3-yl]phenyl}quinoline]"
9,0.4 nM,"CC(C)(O)c1nc(-c2ccc(S(C)(=O)=O)cc2)c(-c2cccc(-c3cc(C(=O)NC4CC4)cc4cccnc34)c2)s1 [Example 167, N-cyclopropyl-8-(3-{2-(1-hydroxy-1-methylethyl)-4-[4-(methylsulfonyl)phenyl]-1,3-thiazol-5-yl}phenyl)quinoline-6-carboxamide]"
10,0.3 nM,"CC(C)(c1cc(-c2cccc(-c3sc(-c4cccc(Cl)c4)nc3-c3ccc(S(C)(=O)=O)cc3)c2)c2ncccc2c1)S(C)(=O)=O [Example 1, 8-(3-{2-(3-chlorophenyl)-4-[4-(methylsulfonyl)phenyl]-1,3-thiazol-5-yl}phenyl)-6-[1-methyl-1-(methylsulfonyl)ethyl]quinoline]"
11,4.3 nM,"CC(C)(O)c1nc(-c2cccc(-c3cc(C(C)(C)S(C)(=O)=O)cc4cccnc34)c2)c(-c2ccc(Cl)cc2)s1 [Example 94, 2-[5-(4-chlorophenyl)-4-(3-{6-[1-methyl-1-(methylsulfonyl)ethyl]quinolin-8-yl}phenyl)-1,3-thiazol-2-yl]propan-2-ol]"
